Data taken from patent US4492694A, “Indolylglycyl cephalosporin derivatives” (Eli Lilly and Company, priority 1983, dated 1985).
Converted amounts (≈) assume the structure as drawn. Where a name gives a salt, the structure may show the parent alone. Read-outs that look alike come from different tables or passages of the source.

Key:
Staph. aureus = experiment: Agar dilution MIC; type: cell-based; settings: Staphylococcus aureus
Salmonella = experiment: Agar dilution MIC; type: cell-based
Source text: (§1) A typical and preferred compound provided by this invention is 7-(3-indolylglycylamido)-3-methyl-3-cephem-4-carboxylic acid, the compound illustrated in Example 2. The antibacterial activity of this compound and others of the invention has been determined in standard in vitro agar dilution assays against a variety of gram positive and gram negative microorganisms. The following Table presents typical minimum inhibitory concentrations (MIC's) in μg/ml for several compounds of the invention when evaluated against the indicated microorganisms. MIC's for several known compounds are also presented for comparison.

Enterobacter = experiment: Agar dilution MIC; type: cell-based; settings: for MIC: Enterobacter
Klebsiella = experiment: Agar dilution MIC; type: cell-based
Staph. epi = experiment: Agar dilution MIC; type: cell-based; settings: for Agar Dilution MIC: strain EPI2
Source text: as §1

Strep. A = experiment: Agar dilution MIC; type: cell-based; settings: strain C203
Strep PN = experiment: Agar dilution MIC; type: cell-based; settings: strain PARK
Strep. D = experiment: Agar dilution MIC; type: cell-based; settings: read-out: Agar Dilution MIC
E. coli = experiment: Agar dilution MIC; type: cell-based; settings: Escherichia coli
[1] = Pharmacokinetics, plasma concentration after intravenous dose; type: in vivo; settings: rat, rats, 20 mg/kg
Procedure: (§2) For example, when 7-(3-indolylglycylamido)-3-methyl-3-cephem-4-carboxylic acid was administered to rats at an intravenous dose of 20 mg/kg, the plasma concentration after one hour was 15.0 μg/ml, and after four hours, 6.0 μg/ml. About 60% of the above compound was recovered in the urine of rats following a 20 mg/kg subcutaneous dose. Less than 5% was recovered from the bile.

[2] = Recovery in urine and bile after subcutaneous dose; type: in vivo; settings: rat, sc, rats, 20 mg/kg
Procedure: as §2

Shig. sonn. = experiment: Agar dilution MIC; type: cell-based; settings: strain N9
[3] = strain V41, read-out: Agar Dilution MIC
[4] = read-out: Agar Dilution MIC, strain X514
[5] = strain 1335, read-out: Agar Dilution MIC
[6] = strain X68, read-out: Agar Dilution MIC
[7] = strain X1.1, read-out: Agar Dilution MIC
[8] = read-out: Agar Dilution MIC, strain S13E
[9] = strain X400, read-out: Agar Dilution MIC
[10] = strain EPI1, read-out: Agar Dilution MIC
[11] = strain X26, read-out: Agar Dilution MIC

Row | SMILES | MIC (Staph. aureus; read-out: Agar Dilution MIC) [µg/mL] | MIC (Staph. aureus; [3]) [µg/mL] | MIC (Salmonella; [4]) [µg/mL] | MIC (Salmonella; [5]) [µg/mL] | MIC (Enterobacter; [6]) [µg/mL] | MIC (Staph. aureus; [7]) [µg/mL] | MIC (Staph. aureus; [8]) [µg/mL] | MIC (Staph. aureus; [9]) [µg/mL] | MIC (Staph. epi; [10]) [µg/mL] | Agar Dilution MIC (Staph. epi) [µg/mL] | MIC (Strep. A) [µg/mL] | MIC (Strep PN) [µg/mL] | MIC (Strep. D; strain 9960) [µg/mL] | MIC (E. coli; strain EC14) [µg/mL] | MIC (E. coli; strain N10) [µg/mL] | MIC (E. coli; strain TEM) [µg/mL] | MIC (Klebsiella; [11]) [µg/mL] | Agar Dilution MIC (Enterobacter; strain EB17) [µg/mL] | MIC (Strep. D; strain X66) [µg/mL] | MIC (Klebsiella; [6]) [µg/mL] | further results
1 | CC1(C)S[C@@H]2[C@H](NC(=O)[C@H](N)c3ccccc3)C(=O)N2[C@H]1C(=O)O [Ampicillin, reference compound] | 0.125 (≈ 0.358 µM) | 8 (≈ 22.9 µM) | 1 (≈ 2.86 µM) | 4 (≈ 11.4 µM) | 8 (≈ 22.9 µM) | – | – | – | – | – | – | – | – | – | – | – | – | – | – | – | –
2 | CC1=C(C(=O)O)N2C(=O)[C@@H](NC(=O)[C@H](N)c3ccccc3)[C@H]2SC1 [Cephalexin, reference compound] | – | – | 0.6 (≈ 1.73 µM) | 0.25 (≈ 0.72 µM) | 0.03 (≈ 0.0864 µM) | 2 (≈ 5.76 µM) | – | – | – | – | – | – | – | – | – | – | – | – | – | – | MIC (Klebsiella; read-out: Agar Dilution MIC): 2 µg/mL (≈ 5.76 µM); MIC (Enterobacter; read-out: Agar Dilution MIC, strain C32): 0.125 µg/mL (≈ 0.36 µM); MIC (Enterobacter; read-out: Agar Dilution MIC, strain EB17): 0.06 µg/mL (≈ 0.173 µM)
3 | CC1=C(C(=O)O)N2C(=O)[C@@H](NC(=O)[C@H](N)c3c[nH]c4ccccc34)C2SC1 (stereo partly drawn) [Ex. 2, D-7-(3-Indolylglycylamido)-3-methyl-3-cephem-4-carboxylic acid trifluoroacetate] | – | 8 | 32 | 128 | – | 4 | 32 | 64 | 16 | 16 | 0.25 | 0.5 | 16 | 32 | 32 | 16 | 16 | > 128 | – | – | MIC (Strep. D): 32 µg/mL; MIC (Enterobacter; read-out: Agar Dilution MIC, strain X68): 32 µg/mL; MIC (Enterobacter; strain C32, read-out: Agar Dilution MIC): > 128 µg/mL; concentration at 4 h ([1]; four hours): 6000 ng/mL; concentration at 1 h ([1]; one hour): 15000 ng/mL; dose excreted ([2]; bile, read-out: recovered from the bile): < 5%; dose excreted ([2]; urine, read-out: recovered in the urine): ~60%
4 | N[C@@H](C(=O)N[C@@H]1C(=O)N2C(C(=O)O)=C(Cl)CSC12)c1c[nH]c2ccccc12 (stereo partly drawn) [Ex. 3, D-7-(3-indolylglycylamido)-3-chloro-3-cephem-4-carboxylic acid trifluoroacetate] | 32 | – | 16 | 16 | > 128 | 4 | 8 | 64 | 16 | – | 0.5 | 0.25 | 16 | 8 | 16 | 16 | 4 | > 128 | 16 | 16 | MIC (Staph. epi; read-out: Agar Dilution MIC, strain EPI2): 32 µg/mL; Agar Dilution MIC (Enterobacter; strain C32): > 128 µg/mL
5 | COC1=C(C(=O)O)N2C(=O)[C@@H](NC(=O)[C@H](N)c3c[nH]c4ccccc34)C2SC1 (stereo partly drawn) [Ex. 4, D-7-(3-Indolylglycylamido)-3-methoxy-3-cephem-4-carboxylic acid] | 32 (≈ 79.5 µM) | – | 16 (≈ 39.8 µM) | 32 (≈ 79.5 µM) | > 128 | 4 (≈ 9.94 µM) | 8 (≈ 19.9 µM) | 64 (≈ 159 µM) | 16 (≈ 39.8 µM) | 16 | 0.25 (≈ 0.621 µM) | 0.5 (≈ 1.24 µM) | 16 (≈ 39.8 µM) | 8 (≈ 19.9 µM) | 16 (≈ 39.8 µM) | 32 (≈ 79.5 µM) | 16 (≈ 39.8 µM) | > 128 | 64 (≈ 159 µM) | 16 (≈ 39.8 µM) | MIC (Shig. sonn.): 32 µg/mL (≈ 79.5 µM); Agar Dilution MIC (Enterobacter; strain C32): > 128 µg/mL
